Laboratory results published in paper PMC9468151, “Identification of a binding site on soluble RANKL that can be targeted to inhibit soluble RANK-RANKL interactions and treat osteoporosis” (Nature Communications, 2022).
Several values for one entry are separate records, joined by “and”; a condition that tells them apart may be missing. Equal entries are not always repeated.

How the values were obtained:
[1] = system: WT sRANKL induced osteoclast formation with H226A/W194A sRANKL; test: Rescue experiment: WT sRANKL combined with W194A or H226A sRANKL; type: cell-based, mouse; set-up: osteoclast formation (fig. S4b): unit not given here; conditions: S3-15 10 μM; for OC numbers: 100 ng/mL WT sRANKL
Procedure: For the osteoclast formation induced by WT and Q238A sRANKL experiments, BMMs were seeded in 96-well plate in density of 6 × 10^3 cell/ well with α-MEM completed medium containing 10 ng/mL M-CSF for 24 h. Then the cells were treated with 0 μM, 0.3 μM, 3 μM and 10 μM and stimulated with 100 ng/mLWT sRANKL or Q238A sRANKL respectively. For the osteoclast formation induced by WT, W194A, and H226A sRANKL experiments, cells were stimulated with 100 ng/mL WT sRANKL combined W194A, H226A sRANKL in different concentrations (50 ng/mL, 200 ng/mL, and 400 ng/mL) with or without 10 μM S3-15. After 5 days, osteoclasts were formed, and applied TRAP-staining as described above. TRAP-positive multinucleated cells with > 3 nuclei were scored as osteoclasts.

NF-κB = test: Reporter-gene assay for NF-κB; type: cell-based, mouse; set-up: NF-κB luciferase expression (fig. 6c): unit not given here; conditions: for NF-κB luciferase expression (fig. 6c): sRANKL stimulated; for reporter signal (fig. S3h): three replicates
Procedure: In order to investigate the NF-κB and NFAT transcriptional inhibition activity of selective sRANKL inhibitor, luciferase reporter gene assays were used[57]. RAW 264.7 cells stably transfected with an NF-κB luciferase reporter gene (3κB-Luc-SV40) or NFAT luciferase reporter gene were seeded into 96-well plates at a density of 1.5 × 10^5 or 1.0 × 10^5 cell per well respectively for 24 h. Cells were pretreated with compounds for 1 h, and then stimulated with sRANKL (100 ng/mL), TNF-ɑ (20 ng/mL), […] (50 ng/mL) and LPS (500 ng/mL) for 6 h for NF-κB transcriptional or 24 h for NFAT transcriptional. After treatment both cells were lysed and measured luciferase activity using a Promega Luciferase Assay system (Promega Corporation) by a Varioskan flash Multimode Microplate Reader (Thermo Scientific).

sRANKL = biological target: T1, sRANKL (Rattus norvegicus, UniProt Q9ESE2, D175N); test: STD NMR binding assay with sRANKL; conditions: 100 μM protein, 5 mM compound
T1 construct: (1) sRANKL (rat 159-318 aa); His6-sumo (N, cleaved yes); made in house; host or cells: Escherichia coli BL21 (DE3)
T1 sequence (Q9ESE2 159-318 D175N): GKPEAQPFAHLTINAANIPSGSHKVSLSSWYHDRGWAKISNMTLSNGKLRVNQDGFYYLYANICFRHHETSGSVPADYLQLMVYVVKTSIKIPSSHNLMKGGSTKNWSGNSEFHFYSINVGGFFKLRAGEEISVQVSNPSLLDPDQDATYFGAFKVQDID
Procedure: For NMR studies, purified sRANKL or L-RANKL protein samples were buffer exchanged into PBS (Gbico, C10010500BT, pH7.4) using a Millipore spin column (1500 × g for 15 min at 4 °C, repeated six times, each time adding fresh PBS and discarding the flow-through). Protein concentration was determined using BCA method according to the procedure of Pierce^TM BCA Protein Assay Kit (Thermo Fisher Scientific). Compound S3-15 powder was dissolved in H2O as a concentration of 10 mM.
Protein saturation transfer difference (STD) experiments were performed on Bruker Avance III 500 (500 MHz) spectrometer (Columbia University) at 300 K using triple-resonance cryogenic probes optimized for proton detection. All experiments were performed using an independent sample for each experimental measurement as a 500 μL sample in NMR tubes with 100 μM protein and […] S3-15 in final concentration. Uniformly, for STD assay all samples were contained 50 μL protein, 200 μL S3-15 (10 mM in H2O), and 250 μL D2O; for S3-15 two-dimensional spectra reference, samples were 50 μL PBS, 200 μL S3-15 (10 mM in H2O) and 250 μL D2O.

[2] = biological target: T2, human mRANKL and human OPG (Homo sapiens, UniProt O14788); test: mRANKL-OPG binding, HEK 293T cells with full length human RANKL; type: cell-based
T2 construct: HEK 293 T cells that transfer full length mouse RANKL or human RANKL; expressed in transfected cells; host or cells: HEK293T
T2 sequence (O14788 whole entry): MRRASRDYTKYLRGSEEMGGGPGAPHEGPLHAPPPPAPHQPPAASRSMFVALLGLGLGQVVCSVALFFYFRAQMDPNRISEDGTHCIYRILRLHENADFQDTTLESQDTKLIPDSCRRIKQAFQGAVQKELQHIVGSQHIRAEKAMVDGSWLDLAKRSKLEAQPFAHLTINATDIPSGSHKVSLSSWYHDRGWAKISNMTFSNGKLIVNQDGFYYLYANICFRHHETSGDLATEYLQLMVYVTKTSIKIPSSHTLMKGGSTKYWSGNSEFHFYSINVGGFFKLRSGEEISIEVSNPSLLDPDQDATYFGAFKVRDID
Procedure: mRANKL-OPG: MC3T3-E1 cells were differentiated by osteoblast differentiation medium (Pythonbio, China) for 2 days. Then cells were exposed to 1 M NaCl for 5 minutes to remove endogenous OPG, washed once in PBS, and fixed with 70% ethanol for 5 minutes at 4 °C. Fixed cells were wash once by PBS and then exposed to PBS that containing 100 ng mouse OPG (Sino, China) or 100 ng mouse OPG with 1 μM S3-15 and incubated for an additional 30 min at 4 °C. Cell layers were washed 2 times with PBS and lysed with 1% triton in PBS. The concentration of OPG in cell lysates were measured with an OPG ELISA kit (USCN, China). Similar proceed were performed using HEK 293 T cells that transfer full length mouse RANKL or human RANKL.

CC(=O)/C(=N\Nc1ccccc1C(=O)O)C(=O)Nc1ccccn1 [S3-15]
OC numbers ([1]; H226A RANKL 0 ng/mL): 36 and 29
OC numbers ([1]; H226A RANKL 50 ng/mL): 173 and 156 and 170
OC numbers ([1]; H226A RANKL 200 ng/mL): 113 and 121 and 125
osteoclast formation (fig. S4b) ([1]; W194A RANKL 0 ng/mL): 34 and 49 and 27
osteoclast formation (fig. S4b) ([1]; W194A RANKL 50 ng/mL): 147 and 144 and 140
osteoclast formation (fig. S4b) ([1]; W194A RANKL 200 ng/mL): 145 and 199 and 158
osteoclast formation (fig. S4b) ([1]; W194A RANKL 400 ng/mL): 119 and 118 and 97
luciferase activity (fig. S3g, taken as NF-κB) (NF-κB; IL-1β stimulated + S3-15): 748200 and 847300 and 792000
luciferase activity (fig. S3g, taken as NF-κB) (NF-κB; LPS stimulated + S3-15): 375600 and 397200 and 396100
luciferase activity (fig. S3g, taken as NF-κB) (NF-κB; TNF-α stimulated + S3-15): 61380 and 70860 and 74440
NF-κB luciferase expression (fig. 6c) (NF-κB; S3-15 conc. 0.08): 32.0377 and 29.8492 and 26.4557
NF-κB luciferase expression (fig. 6c) (NF-κB; S3-15 conc. 0.28): 25.9787 and 28.8312 and 30.4836
NF-κB luciferase expression (fig. 6c) (NF-κB; S3-15 conc. 0.92): 26.259 and 24.0852 and 28.8361
NF-κB luciferase expression (fig. 6c) (NF-κB; S3-15 conc. 3.03): 25.0885 and 25.1918 and 25.4328
NF-κB luciferase expression (fig. 6c) (NF-κB; S3-15 conc. 10): 23.5738 and 23.8492 and 23.6426
NF-κB luciferase expression (fig. 6c) (NF-κB; S3-15 conc. 33): 17.4311 and 18.5918 and 15.8918
reporter signal (fig. S3h) (NF-κB; stimulus IL-1β): 348400 and 323800 and 307900
reporter signal (fig. S3h) (NF-κB; stimulus LPS): 720100 and 801600 and 826800
reporter signal (fig. S3h) (NF-κB; stimulus TNF-α): 62390 and 81670 and 85200
TNF-α, IL-β and LPS activated NF-κB (NF-κB; without RANKL): cannot affect
STD-NMR binding to sRANKL (sRANKL): binds to sRANKL
human mRANKL and human OPG binding ([2]; 1 μM): no effects
mRANKL-OPG binding signal (fig. S4p) ([2]; OPG+S3-15): 0.1995 and 0.1932 and 0.1954
